This data set in a line: Aqueous equilibrated solubility. The format is physicochemical. As to conditions: thermodynamic from solid; aqueous phosphate buffer 50 mM pH 7.4, shaken overnight at RT; pH 7.5 = pH of the solubilized fraction. The procedure:
The studied compound was accurately weighted with a target concentration of 2 mg/mL in an aqueous phosphate buffer (50 mM at pH=7.4). The solution was shaken overnight (rock'n roll shaker) at RT and protected from light (about 24 hrs). The solution was filtered in plate filter device (microplate Millipore “Solvinert” with integrated PTFE filter; 0.45 μm) and the filtrate was dosed by LC/UV method.
The studied compound was accurately weighted with a target concentration of 0.1 mg/mL in DMSO. The solution was sonicated at RT and protected from light. The reference solution was dosed by a LC/UV method and pH of the solubilized fraction was measured.

≈ marks a conversion by molar mass, not a printed value.

In the case of `O=C(Cc1ccc([S@@+]([O-])CC2CC2)cc1)Nc1ccc([C@@](O)(C(F)F)C(F)(F)F)cc1` (single isomer, unassigned) [Example 10], the solubility (in general, the concentration that dissolves in the medium under given conditions) at 24 h is 94.8 µg/mL (≈ 205 µM).
As for `O=C(Cc1ccc([S@@+]([O-])CC2CC2)cc1)Nc1ccc([C@](O)(C(F)F)C(F)(F)F)cc1` (single isomer, unassigned) [Example 11], the figure is 92.5 µg/mL (≈ 200 µM).
Next, `O=C(Cc1ccc([S@+]([O-])CC2CC2)cc1)Nc1ccc([C@@](O)(C(F)F)C(F)(F)F)cc1` (single isomer, unassigned) [Example 12]: 94.4 µg/mL (≈ 205 µM).
Next, `O=C(Cc1ccc([S@+]([O-])CC2CC2)cc1)Nc1ccc([C@](O)(C(F)F)C(F)(F)F)cc1` (single isomer, unassigned) [Example 13]: 93 µg/mL (≈ 202 µM); `O=C(Cc1ccc([S+]([O-])CC2CC2)cc1)Nc1ccc(C(O)(C(F)F)C(F)(F)F)cc1` (centres unmarked) [Example 9, 2-[4-(cyclopropylmethylsulfinyl)phenyl]-N-[4-[1-(difluoromethyl)-2,2,2-trifluoro-1-hydroxy-ethyl]phenyl]acetamide]: 99.4 µg/mL (≈ 215 µM).

For the origin of these results see patent US20190119204A1, “ROR GAMMA (RORy) MODULATORS” (Lead Pharma Holding B.V., priority 2016, published 2019).
